We go through one compound from article PMC9301920, “Physiologically Based Toxicokinetic Modeling of Bisphenols in Zebrafish (Danio rerio) Accounting for Variations in Metabolic Rates, Brain Distribution, and Liver Accumulation” (Environmental Science & Technology, 2022).

Read-outs that look alike come from different tables or passages of the source. Marks after values point to notes of the source that are not given here.

A short description of series [1]: In vitro biotransformation rate, rainbow trout liver S9 (OECD TG 319). Type of series: in vitro ADME. The note with it: from measured S9 clearance, transformed as suggested by Nichols et al. The method, then: In brief, rainbow trout liver S9 homogenate was preincubated in buffer and cofactors, followed by 120 min of incubation with bisphenol. From each duplicate, 50 μL of subsamples was taken at timepoints 0, 2, 5, 15, 30, 60, 90, and 120 min and mixed with 200 μL of ice-cold methanol. The protocol of the procedure is described further in Section 2.
1042. Biotransformation rate estimation methodology
106Trinova Biochem; Lot: 180216) was pre-incubated at 11°C in K 2HPO4/KH2PO4 buffer
107(pH=7.8; 1 mL final volume) containing alamethicin from Trichoderma viride (25 μg/mL), and
108cofactors NADPH (2 mM), UDPGA (2 mM), GSH (5 mM), and PAPS (0.1 mM). After 10 min
109of preincubation, biotransformation was started by adding 5 µL of bisphenol test compound
110dissolved in methanol (1 µM final concentration). […]

For series [2] the following is noted: ref Staples et al. 67; cited from earlier work.
The subject of series [3] is UGT1A1. On the set-up: method as in Wang et al. 64. The note with it: single isolated enzyme; ref Wang et al. 64; cited from earlier work.
For series [4], the system named is zebrafish. The note with it: cited from earlier work.
Series [5] relates to zebrafish. The note with it: female, observed, ref Chen et al. 43, cited from earlier work.
For series [6] the following is noted: plasma; cited from earlier work.
For series [7] the following is noted: hepatocytes; cited from earlier work.

Consider `CC(C)(c1ccc(O)cc1)c1ccc(O)cc1` [BPA, Bisphenol A], for which the “CLin vivo,int (in vivo intrinsic clearance)” value in series [1] came out at 36.7 L/d/Kg fish. Besides, the “log Kow” value in series [2] is reported as 3.42 ^f. The UGT1A1 activity in series [3] was 5.19 pmol/min/mg protein. Also, the BCF in series [4] (97.5 μg/L, gender not specified, whole body, observed, ref Lindholst et al. 39) is 6.46; in series [5] (1.94 μg/L, liver), 201; in series [5] (1.94 μg/L, ovaries), 10.3; in series [5] (5.72 μg/L, liver) it was 199; in series [5] (5.72 μg/L, ovaries), 21.0; in series [5] (5.72 μg/L, whole body) it was 19.2. Also, the t1/2 in series [4] (zebrafish, in vivo) was 107 h. For the same compound, the “Funbound (plasma fraction unbound)” value in series [6] was 0.035. Besides, the “CL (human clearance rate)” value in series [7] was 1.46*105 ml/d/g liver.
